The source of these data is ChEMBL document CHEMBL5385845, “Novel coumarin aminophosphonates as potential multitargeting antibacterial agents against Staphylococcus aureus” (Eur J Med Chem, 2023).

In brackets after ≈: the same amount, converted by molar mass.

Assay type in all cases: functional
Experiment [1] has as its system Staphylococcus aureus. Briefly: Antibacterial activity against methicillin resistant Staphylococcus aureus N315 assessed as inhibition of bacterial growth.
Another experiment deals with Enterococcus faecalis. Briefly: Antibacterial activity against Enterococcus faecalis assessed as inhibition of bacterial growth.
For experiment [2], the system named is Staphylococcus aureus. Briefly: Antibacterial activity against Staphylococcus aureus assessed as inhibition of bacterial growth.
In experiment [3] the test system is Staphylococcus aureus. Briefly: Antibacterial activity against Staphylococcus aureus ATCC 25923 assessed as inhibition of bacterial growth.
In experiment [4] the test system is Staphylococcus aureus. Briefly: Antibacterial activity against Staphylococcus aureus ATCC 29213 assessed as inhibition of bacterial growth.
For the next experiment, the system named is Klebsiella pneumoniae. The experiment in a line: Antibacterial activity against Klebsiella pneumoniae assessed as inhibition of bacterial growth.
The test system of experiment [5] is Escherichia coli. Briefly: Antibacterial activity against Escherichia coli assessed as inhibition of bacterial growth.
The subject of experiment [6] is Pseudomonas aeruginosa. Briefly: Antibacterial activity against Pseudomonas aeruginosa assessed as inhibition of bacterial growth.
The next experiment deals with Acinetobacter baumannii. Briefly: Antibacterial activity against Acinetobacter baumannii assessed as inhibition of bacterial growth.
Experiment [7] has as its system Pseudomonas aeruginosa. The experiment in a line: Antibacterial activity against Pseudomonas aeruginosa ATCC 27853 assessed as inhibition of bacterial growth.
Experiment [8] has as its system Escherichia coli. The experiment in a line: Antibacterial activity against Escherichia coli ATCC 25922 assessed as inhibition of bacterial growth.

As a reminder, the MIC is the smallest concentration in the dilution series that meets the test's criterion for growth inhibition. Consider `CCOP(=O)(OCC)C(Nc1ccc2c(CCl)cc(=O)oc2c1)c1cccc(O)c1` (stereo not given), for which the minimum inhibitory concentration (MIC) came to 64 µg/mL (≈ 142 µM) with Staphylococcus aureus [1]; 32 µg/mL (≈ 70.8 µM) in the experiment on Enterococcus faecalis; 16 µg/mL (≈ 35.4 µM) in the experiment with Staphylococcus aureus [2]; 16 µg/mL (≈ 35.4 µM) with Staphylococcus aureus [3]; 64 µg/mL (≈ 142 µM) in the experiment on Staphylococcus aureus [4]; 128 µg/mL (≈ 283 µM) in the experiment with Klebsiella pneumoniae. Moreover, the minimal inhibitory concentration (MIC) in the experiment with Escherichia coli [5] worked out at 64 µg/mL (≈ 142 µM); with Pseudomonas aeruginosa [6] it was 128 µg/mL (≈ 283 µM); in the experiment on Acinetobacter baumannii, 64 µg/mL (≈ 142 µM); in the experiment with Pseudomonas aeruginosa [7] it was 32 µg/mL (≈ 70.8 µM); in the experiment on Escherichia coli [8] it was 8 µg/mL (≈ 17.7 µM).
Take `CCCCc1nc(Cl)c(C(Nc2ccc3c(C)cc(=O)oc3c2)P(=O)(OCC)OCC)n1CO` (stereo not given): the MIC with Staphylococcus aureus [1] was found to be 2 µg/mL (≈ 3.91 µM); with Enterococcus faecalis, 128 µg/mL (≈ 250 µM); with Staphylococcus aureus [2], 2 µg/mL (≈ 3.91 µM); in the experiment with Staphylococcus aureus [3], 16 µg/mL (≈ 31.3 µM); with Staphylococcus aureus [4] it was 128 µg/mL (≈ 250 µM); with Klebsiella pneumoniae, 16 µg/mL (≈ 31.3 µM). Further, the minimum inhibitory concentration (MIC) with Escherichia coli [5] came to 128 µg/mL (≈ 250 µM); in the experiment on Pseudomonas aeruginosa [6] it was 256 µg/mL (≈ 500 µM); in the experiment with Acinetobacter baumannii it was 64 µg/mL (≈ 125 µM); in the experiment on Pseudomonas aeruginosa [7], 32 µg/mL (≈ 62.5 µM); in the experiment on Escherichia coli [8] it was 16 µg/mL (≈ 31.3 µM).
Turning to `CCOP(=O)(OCC)C(Nc1ccc2c(C)cc(=O)oc2c1)c1cccc(Cl)c1O` (stereo not given), the MIC in the experiment with Staphylococcus aureus [1] was 64 µg/mL (≈ 142 µM); with Enterococcus faecalis, 128 µg/mL (≈ 283 µM); with Staphylococcus aureus [2], 32 µg/mL (≈ 70.8 µM); in the experiment on Staphylococcus aureus [3], 64 µg/mL (≈ 142 µM); with Staphylococcus aureus [4] it was 128 µg/mL (≈ 283 µM); in the experiment on Klebsiella pneumoniae, 128 µg/mL (≈ 283 µM). Also, the minimal inhibitory concentration (MIC) stood at 128 µg/mL (≈ 283 µM) with Escherichia coli [5]; 16 µg/mL (≈ 35.4 µM) in the experiment on Pseudomonas aeruginosa [6]; 128 µg/mL (≈ 283 µM) in the experiment on Acinetobacter baumannii; 64 µg/mL (≈ 142 µM) with Pseudomonas aeruginosa [7]; 64 µg/mL (≈ 142 µM) in the experiment on Escherichia coli [8].
On to `CCCCc1nc(Cl)c(C(Nc2ccc3c(C)cc(=O)oc3c2)P(=O)(OCC)OCC)n1Cc1ccccc1F` (stereo not given), for which the minimum inhibitory concentration (MIC) in the experiment with Staphylococcus aureus [1] amounted to 64 µg/mL (≈ 108 µM); with Enterococcus faecalis, 128 µg/mL (≈ 217 µM); in the experiment on Staphylococcus aureus [2], 128 µg/mL (≈ 217 µM); in the experiment with Staphylococcus aureus [3], 64 µg/mL (≈ 108 µM); in the experiment on Staphylococcus aureus [4], 32 µg/mL (≈ 54.2 µM); with Klebsiella pneumoniae, 128 µg/mL (≈ 217 µM). Moreover, the minimal inhibitory concentration (MIC) is 32 µg/mL (≈ 54.2 µM) in the experiment with Escherichia coli [5]; 256 µg/mL (≈ 434 µM) in the experiment on Pseudomonas aeruginosa [6]; 32 µg/mL (≈ 54.2 µM) with Acinetobacter baumannii; 64 µg/mL (≈ 108 µM) in the experiment on Pseudomonas aeruginosa [7]; 256 µg/mL (≈ 434 µM) in the experiment on Escherichia coli [8].
Take `CCOP(=O)(OCC)C(Nc1ccc2c(C)cc(=O)oc2c1)c1ccc(O)c(Br)c1` (stereo not given): the minimum inhibitory concentration (MIC) in the experiment with Staphylococcus aureus [1] came to 256 µg/mL (≈ 516 µM); in the experiment with Enterococcus faecalis, 128 µg/mL (≈ 258 µM); with Staphylococcus aureus [2], 64 µg/mL (≈ 129 µM); with Staphylococcus aureus [3], 128 µg/mL (≈ 258 µM); in the experiment with Staphylococcus aureus [4] it was 128 µg/mL (≈ 258 µM); in the experiment on Klebsiella pneumoniae it was 128 µg/mL (≈ 258 µM). Further, the minimum inhibitory concentration (MIC) in the experiment with Escherichia coli [5] was determined as 64 µg/mL (≈ 129 µM); in the experiment with Pseudomonas aeruginosa [6], 32 µg/mL (≈ 64.5 µM); in the experiment on Acinetobacter baumannii, 128 µg/mL (≈ 258 µM); in the experiment on Pseudomonas aeruginosa [7], 64 µg/mL (≈ 129 µM); in the experiment with Escherichia coli [8], 128 µg/mL (≈ 258 µM).
